Source: patent US20090288227A1, “Improvements in or Relating to Starch Storage in Plants” (University of Durham, priority 2006, published 2009)
Marks after values point to notes of the source that are not given here.

Columns and labels:
Format in all cases: in vivo, Arabidopsis thaliana
[1] = tested on: FUS3 transcript; assay: Semi-quantitative RT-PCR of FUS3 transcript in treated tnp seedlings; settings: tnp seedlings at 1-2 days post-germination
From the text: (§1) Alternatively, it is possible that these compounds may act by changing the expression of other key embryonic regulators to alter penetrance. FUS3 and LEC2 play key roles in embryogenesis and the transition to germination (Luerben et al, 1998 Plant J. 15, 755-764; Stone et al, 2001 Proc. Natl. Acad. Sci. USA 98, 11806-11811; Kroj et al, 2003 Development 130, 6065-6073). Semi-quantitative RT-PCR was used to determine whether the transcript levels in these genes were affected in tnp seedlings at 1-2 days post-germination in response to treatment with these compounds (see FIG. 10b).

[2] = tested on: LEC2 transcripts; assay: Semi-quantitative RT-PCR of LEC2 transcript in treated tnp seedlings; settings: tnp seedlings at 1-2 days post-germination
From the text: as §1

[3] = tested on: LEC1 transcript; assay: Semi-quantitative RT-PCR of LEC1 transcript in treated germinating seedlings; settings: tnp and pls control seedlings, RNA at 1-2 days post-germination
Experimental: To investigate the mechanism by which these compounds work, germinating seedlings were treated with each of the compounds, as well as with gibberellic acid (which has no effect on penetrance), and RNA was extracted at 1-2 days post-germination. […] Therefore, the effect of these compounds on penetrance is not mediated by alterations in LEC1 transcript levels, although post-transcriptional or translational effects cannot be excluded.

[4] = tested on: tnp seedlings; assay: Penetrance of the tnp phenotype in seedlings germinated and grown on medium containing the compound; settings: for effect on penetrance of the tnp phenotype: tnp seed germinated and grown in presence of the compound, result in words
Experimental: In order to establish whether the incomplete penetrance was due to methylation-dependent gene silencing, individual T3 sibling lines were germinated in the presence of 100 μM 5-azacytidine, a methylation inhibitor (Jones and Taylor, 1980 Cell 20, 85-93). […]
The tnp mutant phenotype is similar to that of the pkl mutant, which is characterised by the development of swollen and greenish roots that accumulate triacylglycerols and protein bodies (Ogas et al, 1997 Science 277, 91-94; Ogas et al, 1999 Proc. Natl. Acad. Sci. USA 96, 13839-13844). The penetrance of the pkl mutant phenotype is also variable and is affected by gibberellic acid and the gibberellin biosynthesis inhibitor, uniconazole-P. In order to determine whether growth factors have an effect on the penetrance of the tnp phenotype, the tnp seed was germinated and grown in the presence of a number of compounds (see Table 2).
Given the large quantities of starch stored in tnp, the effect of sugars on penetrance was examined. […] Furthermore, the effect of 1% glucose or fructose was not as potent as the effect obtained from sucrose alone. […] The effect of sugars on the penetrance of tnp was not due to an osmotic effect, since mannitol was ineffective at inducing penetrance in the absence of sugar (data not shown).

[5] = Table 2 second series (1/2MS10 control 47.8), 10 nM
[6] = Table 2 second series (1/2MS10 control 47.8), 100 nM
[7] = Table 2 first series (1/2 MS10 control 32.8), 10 nM
[8] = Table 2 second series (1/2MS10 control 47.8), 1 μM
[9] = Table 2 first series (1/2 MS10 control 32.8), 10 uM

## CC(C)(C)[C@@H](O)[C@@H](Cc1ccc(Cl)cc1)n1cncn1 (racemic) [Paclobutrazol, paclobutrazol]
[1]
  FUS3 transcript levels: did not have a significant effect
[2]
  levels of LEC2 transcripts: no effect
[3]
  LEC1 transcript levels: unaltered
[4]; [5]
  % tnp: 84.7%
[4]; [6]
  % tnp: 72.3* %
[4]
  effect on penetrance of the tnp phenotype: increased

## O=C(O)COc1ccc(Cl)cc1Cl [2,4-D, 2,4-dichlorophenoxyacetic acid]
[1]
  FUS3 transcript levels: increase
[2]
  levels of LEC2 transcripts: significantly reduce
[4]; 0% suc. + 10 nm 2,4-D
  % tnp: 2%
[4]; 1% suc. + 10 nm 2,4-D
  % tnp: 85.1%
[4]; 2% suc. + 10 nm 2,4-D
  % tnp: 92.3%
[4]; 3% suc. + 10 nm 2,4-D
  % tnp: 84.1%
[4]; 4% suc. + 10 nm 2,4-D
  % tnp: 68.9%
[4]; 5% suc. + 10 nm 2,4-D
  % tnp: 82.4%
[4]; 6% suc. + 10 nm 2,4-D
  % tnp: 66.0%
[4]; [7]
  % tnp: 78.1%
[4]; [5]
  % tnp: 82.1%
[4]; [6]
  % tnp: 95.3%
[4]; [8]
  % tnp: 98.2%
[4]; addition of 10 nM 2,4-D to the medium, even in absence of sucrose
  tnp penetrance compared with sucrose alone: greater penetrance
[4]; concentration of 1 μM
  penetrance of the tnp phenotype: ~100%
[4]; medium containing 20% sucrose and 25 nM 2,4-D, no effect on growth
  penetrance of tnp: highest penetrance
[4]
  effect on penetrance of the tnp phenotype: positive effect

## Nc1ncn([C@@H]2O[C@H](CO)[C@@H](O)[C@H]2O)c(=O)n1 [5-AZA-C, 5-azacytidine]
[4]; T3 Line 1, 100 μm 5-AZA-C, 1/2MS10 control 28
  % tnp: 62%
[4]; T3 Line 7, 100 μM 5-AZA-C, 1/2MS10 control 0
  % tnp: 7.4%
[4]; T3 Line 21, 100 μM 5-AZA-C, 1/2MS10 control 41
  % tnp: 48%
[4]; T3 sibling lines germinated in presence of 100 μM, highly variable between lines
  penetrance of the tnp phenotype compared with control levels: increase in the penetrance

## OC[C@@H](O)[C@@H](O)[C@H](O)[C@H](O)CO [mannitol]
[4]; osmotic control, data not shown
  inducing tnp penetrance in the absence of sugar: ineffective

## c1ccc(CNc2ncnc3nc[nH]c23)cc1 [BA, N(6)-benzyladenine]
[1]
  FUS3 transcript levels: reduction
[2]
  levels of LEC2 transcripts: significantly reduce
[4]; Table 2 first series (1/2 MS10 control 32.8), 100 nM
  % tnp: 9.9%
[4]; [5]
  % tnp: 55%
[4]; [6]
  % tnp: 35.6%
[4]; [8]
  % tnp: 5%
[4]
  effect on penetrance of the tnp phenotype: markedly suppressed

## O=C(O)c1ccccc1C(=O)Nc1cccc2ccccc12 [NPA, 1-N-naphthylphthalamic acid]
[4]; [9]
  % tnp: 55.4%
[4]
  effect on penetrance of the tnp phenotype: positive effect

## NC1(C(=O)O)CC1 [ACC, 1-aminocyclopropane-1-carboxylate]
[4]; Table 2 first series (1/2 MS10 control 32.8), 100 pM
  % tnp: 29.3%
[4]
  effect on penetrance of the tnp phenotype: little effect

## O=C(O)Cc1cccc2ccccc12 [NAA, naphthaleneacetic acid]
[4]; [7]
  % tnp: 42.8%

## CC1=CC(=O)CC(C)(C)[C@@]1(O)/C=C/C(C)=C\C(=O)O [ABA, abscisic acid]
[4]
  effect on penetrance of the tnp phenotype: not found to have an effect

## OC[C@H]1O[C@@](CO)(O[C@H]2O[C@H](CO)[C@@H](O)[C@H](O)[C@H]2O)[C@@H](O)[C@@H]1O [suc., sucrose]
[4]; 1% suc. in medium
  % tnp: 60.5%
[4]; 2% suc. in medium
  % tnp: 65.4%
[4]; 3% suc. in medium
  % tnp: 58.4%
[4]; 4% suc. in medium
  % tnp: 52.4%
[4]; 5% suc. in medium
  % tnp: 54.1%
[4]; 6% suc. in medium
  % tnp: 42.8%
[4]; concentration of 2% sucrose
  level of tnp penetrance over sucrose concentrations: highest level of penetrance

## O=C(CO)[C@@H](O)[C@H](O)[C@H](O)CO [fructose]
[4]; 1% sugar, data not shown
  effect on tnp penetrance compared with sucrose alone: not as potent

## C=C1C[C@]23C[C@@]1(O)CC[C@H]2[C@@]12C=C[C@H](O)[C@@](C)(C(=O)O1)[C@H]2[C@@H]3C(=O)O [GA, gibberellic acid]
[1]
  FUS3 transcript levels: did not have a significant effect
[2]
  levels of LEC2 transcripts: significantly reduce
[3]
  LEC1 transcript levels: unaltered
[4]; 10 nM paclobutrazol and 10 μM gibberellic acid together, data not shown
  effect on the positive effect of paclobutrazol on tnp penetrance: partially suppressed
[4]; [9]
  % tnp: 37.3%
[4]; [5]
  % tnp: 42.1%
[4]; [6]
  % tnp: 52%
[4]; [8]
  % tnp: 58.4%
[4]; Table 2 second series (1/2MS10 control 47.8), 10 μM
  % tnp: 45.4%
[4]
  effect on penetrance of the tnp phenotype: weakly positive effect

## O=C(O)Cc1c[nH]c2ccccc12 [IAA, indole-3-acetic acid]
[4]; Table 2 first series (1/2 MS10 control 32.8), 50 nM
  % tnp: 69.1%
[4]
  effect on penetrance of the tnp phenotype: positive effect

## O=C(O)COc1cccc2ccccc12 [NOA, naphthoxyacetic acid]
[4]; [9]
  % tnp: 58.8%
[4]
  effect on penetrance of the tnp phenotype: positive effect
